According to patent US20240076615A1, “MODELS AND METHODS FOR RAPID SCREENING OF THE EFFICACY OF IMMUNOREGULATING DRUGS” (priority 2022, published 2024):

Test system: tumor cells and immune cells of a patient with ovarian cancer
Test: IO-FIVE capsule tube test in mice, ovarian cancer patient (Example 3), CTG and FACS
Type: in vivo, human
Conditions: day 10; tumor sample after addition of autologous TIL cells
Text: The following was collected for cell identification: a single cell suspension of tumor tissue samples of patients before purification, tumor cells after purification, enriched immune cells (containing CD3+T) eluted from the column, and a cell suspension in which tumor cells after purification and immune cells were mixed in a certain ratio (1.5:1 to 15:1), to yield a final cell count of 0.1 to 0.3 million cells. (Note that if the viability of immune cells eluted from the column was less than 20%, then downstream experiments and operations could not be performed, especially since activated immune cells were more likely to undergo activation-induced apoptosis). […]
According to the data analyzed in step of flow cytometry, the CD45− tumor cells and CD3+ T cells were mixed in a certain ratio (about 1.5:1-15:1). […]
3-21 days after administration (day 10 here), the mice were euthanized, and the PVDF tubes were removed. Cell viability was quantified by the CellTiter-Glo chemiluminescence method, and the relative ratio and basic phenotype of tumor cells and immune cells in PVDF tubes were detected by flow cytometry.
The results were analyzed by Flowjo software.

Which “viability of total cells / overall tumor viability (CTG)” value does the source give for `NC(=O)c1cccc2cn(-c3ccc([C@@H]4CCCNC4)cc3)nc12` [PARP inhibitor, Niraparib] here?
Its value is “neither PD1 antibody nor PARP inhibitor mono-therapy could inhibit”.
